Literature values as cited in US7341836B2, “Modified cyclic nucleotide gated ion channels” (The Regents of the University of Colorado, priority 2001, dated 2008).

Tests used:
PDE V = PDE V (UniProt O76074); conditions: cited from earlier work
PDE II = target: T1, PDE II (Homo sapiens, UniProt O00408); conditions: read-out: IC50, PDE II; cited from earlier work
T1 construct: host or cells: heterologously expressed human PDE; human heart

PDE VIII = target: T2, PDE VIII (Mus musculus, UniProt O88502); conditions: cited from earlier work
T2 construct: host or cells: heterologously expressed
T2 sequence (O88502 1-823): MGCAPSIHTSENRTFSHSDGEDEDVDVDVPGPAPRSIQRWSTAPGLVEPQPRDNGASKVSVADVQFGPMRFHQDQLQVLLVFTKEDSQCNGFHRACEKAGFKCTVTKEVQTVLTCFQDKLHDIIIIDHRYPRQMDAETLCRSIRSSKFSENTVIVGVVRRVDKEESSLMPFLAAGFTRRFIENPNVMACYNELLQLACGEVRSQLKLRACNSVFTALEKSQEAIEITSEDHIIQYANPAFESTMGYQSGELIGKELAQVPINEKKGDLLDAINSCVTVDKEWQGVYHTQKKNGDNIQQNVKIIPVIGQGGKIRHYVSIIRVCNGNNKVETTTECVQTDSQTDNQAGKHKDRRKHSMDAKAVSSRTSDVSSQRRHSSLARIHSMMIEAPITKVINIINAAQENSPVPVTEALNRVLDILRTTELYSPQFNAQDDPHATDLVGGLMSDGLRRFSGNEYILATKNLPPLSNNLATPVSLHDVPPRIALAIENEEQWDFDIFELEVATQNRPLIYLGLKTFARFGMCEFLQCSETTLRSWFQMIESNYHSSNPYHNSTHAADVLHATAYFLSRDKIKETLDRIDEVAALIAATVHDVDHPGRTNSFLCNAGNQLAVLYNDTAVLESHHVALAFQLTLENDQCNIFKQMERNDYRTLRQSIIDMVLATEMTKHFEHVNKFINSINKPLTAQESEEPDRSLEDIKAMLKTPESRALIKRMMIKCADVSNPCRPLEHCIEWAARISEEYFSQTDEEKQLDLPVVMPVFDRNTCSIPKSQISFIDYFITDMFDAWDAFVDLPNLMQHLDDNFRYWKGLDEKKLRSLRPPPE

PDE IX = target: T3, PDE IX (UniProt O70628); conditions: read-out: IC50, PDE IX; cited from earlier work
T3 sequence (O70628 1-534): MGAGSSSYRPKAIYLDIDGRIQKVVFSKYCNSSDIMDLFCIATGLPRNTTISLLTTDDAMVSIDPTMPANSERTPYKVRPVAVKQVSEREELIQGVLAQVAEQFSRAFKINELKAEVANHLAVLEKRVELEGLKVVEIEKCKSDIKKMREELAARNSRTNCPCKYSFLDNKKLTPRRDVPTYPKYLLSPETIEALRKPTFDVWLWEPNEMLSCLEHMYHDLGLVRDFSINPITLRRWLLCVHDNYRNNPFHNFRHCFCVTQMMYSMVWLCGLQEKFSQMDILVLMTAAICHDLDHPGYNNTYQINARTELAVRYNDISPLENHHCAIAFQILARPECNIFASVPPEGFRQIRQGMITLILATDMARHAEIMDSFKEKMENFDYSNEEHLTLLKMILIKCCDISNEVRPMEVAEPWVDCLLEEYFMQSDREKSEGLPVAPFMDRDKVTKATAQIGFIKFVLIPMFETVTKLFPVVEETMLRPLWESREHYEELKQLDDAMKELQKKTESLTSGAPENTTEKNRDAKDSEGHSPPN

PDE X = target: T4, PDE X (Mus musculus, UniProt Q8CA95); conditions: cited from earlier work
T4 construct: host or cells: heterologously expressed
T4 sequence (Q8CA95 1-790): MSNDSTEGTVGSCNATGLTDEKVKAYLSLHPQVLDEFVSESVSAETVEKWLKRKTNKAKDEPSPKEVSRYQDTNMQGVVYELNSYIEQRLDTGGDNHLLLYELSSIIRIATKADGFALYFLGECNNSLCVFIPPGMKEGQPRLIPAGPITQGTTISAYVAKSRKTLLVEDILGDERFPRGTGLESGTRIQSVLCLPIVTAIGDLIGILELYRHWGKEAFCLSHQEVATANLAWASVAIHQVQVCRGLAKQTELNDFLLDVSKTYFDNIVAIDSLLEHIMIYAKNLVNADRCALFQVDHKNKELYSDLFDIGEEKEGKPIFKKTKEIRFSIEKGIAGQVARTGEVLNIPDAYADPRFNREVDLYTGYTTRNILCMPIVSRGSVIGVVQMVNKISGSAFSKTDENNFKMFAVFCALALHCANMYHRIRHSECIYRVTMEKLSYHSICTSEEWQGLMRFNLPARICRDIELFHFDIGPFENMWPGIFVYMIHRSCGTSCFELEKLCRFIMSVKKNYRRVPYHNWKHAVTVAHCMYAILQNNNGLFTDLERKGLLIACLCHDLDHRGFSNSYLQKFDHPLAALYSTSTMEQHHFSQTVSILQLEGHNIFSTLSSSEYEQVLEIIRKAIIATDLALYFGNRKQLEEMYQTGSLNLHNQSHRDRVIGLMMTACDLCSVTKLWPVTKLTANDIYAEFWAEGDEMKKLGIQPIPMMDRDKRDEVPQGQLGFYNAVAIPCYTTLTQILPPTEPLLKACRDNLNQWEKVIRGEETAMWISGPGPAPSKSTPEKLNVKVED

PDE VII = target: T5, PDE VII (UniProt Q9QXQ1); conditions: cited from earlier work
T5 sequence (Q9QXQ1 1-446): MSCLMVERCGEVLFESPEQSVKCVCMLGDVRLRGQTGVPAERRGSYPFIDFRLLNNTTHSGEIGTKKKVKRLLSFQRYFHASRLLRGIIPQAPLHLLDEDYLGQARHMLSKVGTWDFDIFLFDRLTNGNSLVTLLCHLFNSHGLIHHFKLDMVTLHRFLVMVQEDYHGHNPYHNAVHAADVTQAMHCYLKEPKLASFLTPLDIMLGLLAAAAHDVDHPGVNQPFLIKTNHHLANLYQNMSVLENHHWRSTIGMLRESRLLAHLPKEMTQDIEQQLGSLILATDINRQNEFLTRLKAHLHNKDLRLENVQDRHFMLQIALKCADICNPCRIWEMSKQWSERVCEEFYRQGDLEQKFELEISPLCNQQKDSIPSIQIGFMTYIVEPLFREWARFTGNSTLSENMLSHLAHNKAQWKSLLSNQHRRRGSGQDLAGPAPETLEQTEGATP

T1 sequence (O00408 whole entry): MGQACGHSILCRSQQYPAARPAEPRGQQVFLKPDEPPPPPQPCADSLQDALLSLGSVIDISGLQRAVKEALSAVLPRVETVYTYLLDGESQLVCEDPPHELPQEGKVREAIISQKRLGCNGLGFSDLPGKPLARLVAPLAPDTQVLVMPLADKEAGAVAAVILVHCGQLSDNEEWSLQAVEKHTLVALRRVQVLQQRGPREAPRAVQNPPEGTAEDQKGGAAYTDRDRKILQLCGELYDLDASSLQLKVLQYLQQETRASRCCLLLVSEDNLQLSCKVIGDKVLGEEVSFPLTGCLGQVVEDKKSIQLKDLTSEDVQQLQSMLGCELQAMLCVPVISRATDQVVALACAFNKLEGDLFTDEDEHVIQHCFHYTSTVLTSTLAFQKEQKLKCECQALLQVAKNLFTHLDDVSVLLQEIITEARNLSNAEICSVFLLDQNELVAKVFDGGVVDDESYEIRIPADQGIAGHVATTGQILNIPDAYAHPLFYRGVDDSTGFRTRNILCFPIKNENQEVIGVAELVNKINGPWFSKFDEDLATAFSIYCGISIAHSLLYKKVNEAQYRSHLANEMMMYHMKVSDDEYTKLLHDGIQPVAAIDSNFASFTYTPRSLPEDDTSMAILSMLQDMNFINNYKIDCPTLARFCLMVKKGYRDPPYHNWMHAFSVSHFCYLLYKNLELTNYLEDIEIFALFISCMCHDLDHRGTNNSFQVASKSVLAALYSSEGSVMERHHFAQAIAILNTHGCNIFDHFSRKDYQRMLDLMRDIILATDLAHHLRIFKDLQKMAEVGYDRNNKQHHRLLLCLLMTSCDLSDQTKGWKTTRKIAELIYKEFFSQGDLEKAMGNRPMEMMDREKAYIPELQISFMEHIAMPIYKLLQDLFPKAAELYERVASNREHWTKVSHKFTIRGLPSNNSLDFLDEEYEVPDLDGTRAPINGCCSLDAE

SMILES | IC50 (PDE V) [µM] | IC50 (PDE II) [µM] | IC50 (PDE VIII) [µM] | IC50 (PDE IX) [µM] | IC50 (PDE X) [µM] | IC50 (PDE VII) [µM]
CCCCCC[C@@H]([C@@H](C)O)n1cnc2c(N)ncnc21 (racemic) [EHNA] | > 500 | 0.5 to 1 | > 100 | > 100 | 69 | > 100
COc1ccc(C2CNC(=O)C2)cc1OC1CCCC1 (stereo not drawn) [Rolipram] | – | > 100 | > 200 | > 200 | 47 | > 100
CC(C)Cn1c(=O)n(C)c(=O)c2[nH]cnc21 [IBMX, 3-isobutyl-1-methylxanthine] | 4 to 7 | 20 to 50 | > 200 | > 200 | 2.6 | 2 to 8
CCCCOc1cc(CC2CNC(=O)N2)ccc1OC (stereo not drawn) [RO-20-1724, 4-(3-butoxy-4-methoxybenzyl)-2-imidazolidinone] | 250 | > 100 | > 200 | – | – | > 200
